Values quoted from earlier work in paper PMC11170759, “Advancing Parkinson’s Disease Diagnostics: The Potential of Arylpyrazolethiazole Derivatives for Imaging α-Synuclein Aggregates” (ACS Omega, 2024).

System: α-synuclein aggregates
Design: method as in PMID 34577548
Details: literature ligand of Figure 1; cited from earlier work

c1ccc(-c2ccc(C3CC(c4ccc5c(c4)OCO5)=NN3)o2)cc1 (stereo not shown) [8b]
reduction of ThT fluorescence: 94%
